Test results as given in ChEMBL document CHEMBL3399960, “Cytochalasin derivatives from a jellyfish-derived fungus Phoma sp” (Bioorg Med Chem Lett, 2015).

Experiments:
Format in all cases: functional, cell-based
[1] = Cytotoxicity against human HCT116 cells after 24 hrs by WST assay; conditions: HCT-116, 24 h
A549 = assay: Cytotoxicity against human A549 cells after 24 hrs by WST assay; conditions: A549, 24 h
KB = assay: Cytotoxicity against human KB cells after 24 hrs by WST assay

SMILES: CC1=C(C)[C@H]2[C@H](Cc3ccccc3)NC(=O)[C@]23OC(=O)/C=C/C(=O)CCC[C@@H](C)C/C=C/[C@H]3[C@@H]1O
- IC50 [1]: 38.1 µM
- IC50 (A549): 29.2 µM
- IC50 (KB): 19.9 µM

SMILES: CC1=C(C)[C@H]2[C@H](Cc3ccccc3)NC(=O)[C@]23OC(=O)CCC(=O)CCC[C@@H](C)C/C=C/[C@H]3[C@@H]1O
- IC50 [1]: > 40 µM
- IC50 (A549): 37.3 µM
- IC50 (KB): > 40 µM

SMILES: CC1=C(C)[C@H]2[C@H](Cc3ccccc3)NC(=O)[C@]23OC(=O)CC[C@H](O)CCC[C@@H](C)C/C=C/[C@H]3[C@@H]1O
- IC50 [1]: > 40 µM
- IC50 (A549): > 40 µM
- IC50 (KB): > 40 µM

SMILES: C=C1[C@@H](C)[C@H]2[C@H](Cc3ccccc3)NC(=O)[C@]23OC(=O)CCC(=O)CCC[C@@H](C)C/C=C/[C@H]3[C@@H]1O
- IC50 [1]: 39.3 µM
- IC50 (A549): 39.3 µM
- IC50 (KB): 37.3 µM

SMILES: CC1=C[C@@H]2/C=C/C[C@H](C)CCCC/C=C/C(=O)O[C@]23C(=O)N[C@@H](Cc2ccccc2)[C@@H]3[C@@H]1C
- IC50 [1]: 18.2 µM
- IC50 (A549): 36.2 µM
- IC50 (KB): 19.7 µM

SMILES: COc1cccc2c1C(=O)c1c(O)c3c(c(O)c1C2=O)C[C@@](O)(C(=O)CO)C[C@@H]3O[C@H]1C[C@H](N)[C@H](O)[C@H](C)O1 [DOXORUBICIN]
- IC50 [1]: 2.2 µM
- IC50 (A549): 1.3 µM
- IC50 (KB): 4.3 µM
